Measured values reported in publication PMC10746543, “Design principles for cyclin K molecular glue degraders” (Nature Chemical Biology, 2023).
“And” between values parts separate entries of the source, which are not always exact repeats. Identical values can stand only once. Like-named read-outs stand apart in the source and are kept apart here.

What was measured:
[1] = biological target: T1, CDK12–cyclin K and DDB1 (Homo sapiens, UniProt Q16531+Q9NYV4, K965R); experiment: TR-FRET ternary complex formation assay (compound titration); type: binding; details: for TR-FRET signal at compound concentration: replicate titrations
T1 construct: His6–CDK12 (a.a. 713–1,052); full-length or beta-propeller B domain deletion (ΔBPB: a.a. 396–705 deleted) constructs of His6–DDB1ΔBPB, StrepII–Avi–DDB1, or His6–Spy–DDB1; made in house; host or cells: Trichoplusia ni High Five insect cells (baculovirus)
T1 sequence (Q9NYV4 713-1052 K965R): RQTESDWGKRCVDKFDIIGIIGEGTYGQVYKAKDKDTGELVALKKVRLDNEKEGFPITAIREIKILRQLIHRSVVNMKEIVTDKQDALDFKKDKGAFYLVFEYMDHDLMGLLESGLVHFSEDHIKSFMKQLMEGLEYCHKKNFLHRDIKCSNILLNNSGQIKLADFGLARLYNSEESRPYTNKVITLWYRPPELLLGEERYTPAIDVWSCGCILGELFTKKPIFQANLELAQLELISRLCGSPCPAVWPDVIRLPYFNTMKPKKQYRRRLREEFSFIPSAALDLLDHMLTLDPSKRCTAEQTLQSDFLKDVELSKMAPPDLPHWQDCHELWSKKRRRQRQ
T1 sequence (O75909 1-267 partner): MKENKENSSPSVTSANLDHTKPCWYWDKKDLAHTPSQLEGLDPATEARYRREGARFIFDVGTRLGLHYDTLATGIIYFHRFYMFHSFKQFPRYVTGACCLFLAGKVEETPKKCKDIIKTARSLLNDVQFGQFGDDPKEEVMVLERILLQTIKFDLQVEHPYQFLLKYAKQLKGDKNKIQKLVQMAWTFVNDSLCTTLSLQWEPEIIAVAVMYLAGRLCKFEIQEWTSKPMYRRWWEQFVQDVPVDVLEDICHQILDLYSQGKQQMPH
T1 sequence (Q16531 whole entry): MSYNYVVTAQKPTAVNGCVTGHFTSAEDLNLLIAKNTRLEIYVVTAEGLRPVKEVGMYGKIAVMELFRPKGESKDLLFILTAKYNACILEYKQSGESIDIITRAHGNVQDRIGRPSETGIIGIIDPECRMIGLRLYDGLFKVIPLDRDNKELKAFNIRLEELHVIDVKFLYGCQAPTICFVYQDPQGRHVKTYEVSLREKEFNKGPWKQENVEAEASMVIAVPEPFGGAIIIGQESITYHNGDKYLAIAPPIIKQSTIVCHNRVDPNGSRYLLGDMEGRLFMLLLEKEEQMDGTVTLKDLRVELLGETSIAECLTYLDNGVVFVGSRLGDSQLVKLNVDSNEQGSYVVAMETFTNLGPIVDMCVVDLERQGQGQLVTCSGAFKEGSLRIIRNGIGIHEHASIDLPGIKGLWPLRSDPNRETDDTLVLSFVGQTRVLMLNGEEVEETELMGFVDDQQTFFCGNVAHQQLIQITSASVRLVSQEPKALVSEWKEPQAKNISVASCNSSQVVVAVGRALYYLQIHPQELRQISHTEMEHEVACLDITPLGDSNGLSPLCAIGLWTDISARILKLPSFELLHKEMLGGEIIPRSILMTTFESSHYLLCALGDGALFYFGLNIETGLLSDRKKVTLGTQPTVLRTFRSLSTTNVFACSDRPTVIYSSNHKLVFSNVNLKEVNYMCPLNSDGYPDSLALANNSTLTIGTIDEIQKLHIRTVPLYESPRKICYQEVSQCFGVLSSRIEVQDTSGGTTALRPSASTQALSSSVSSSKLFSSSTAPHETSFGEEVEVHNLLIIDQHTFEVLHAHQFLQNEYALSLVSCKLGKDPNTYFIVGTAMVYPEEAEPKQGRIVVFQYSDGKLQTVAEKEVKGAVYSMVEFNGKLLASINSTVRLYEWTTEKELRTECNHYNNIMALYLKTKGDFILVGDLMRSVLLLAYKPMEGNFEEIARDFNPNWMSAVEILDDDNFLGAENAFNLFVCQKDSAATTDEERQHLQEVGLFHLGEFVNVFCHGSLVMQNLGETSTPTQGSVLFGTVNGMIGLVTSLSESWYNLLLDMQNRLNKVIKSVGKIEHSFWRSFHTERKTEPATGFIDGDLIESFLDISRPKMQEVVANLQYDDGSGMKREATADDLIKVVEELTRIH
Procedure, shortened: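 Signal was the ratio of 520 nm to 490 nm fluorescence, measured after a 70 μs delay that reduced background.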

[2] = biological target: T2, CDK12 (Homo sapiens, UniProt Q16531+Q9NYV4); experiment: Label-free quantitative mass spectrometry in MDA-MB-231 cells, CDK12; type: cell-based
T2 construct: endogenous in cells; host or cells: MDA-MB-231
T2 sequence (Q9NYV4 whole entry): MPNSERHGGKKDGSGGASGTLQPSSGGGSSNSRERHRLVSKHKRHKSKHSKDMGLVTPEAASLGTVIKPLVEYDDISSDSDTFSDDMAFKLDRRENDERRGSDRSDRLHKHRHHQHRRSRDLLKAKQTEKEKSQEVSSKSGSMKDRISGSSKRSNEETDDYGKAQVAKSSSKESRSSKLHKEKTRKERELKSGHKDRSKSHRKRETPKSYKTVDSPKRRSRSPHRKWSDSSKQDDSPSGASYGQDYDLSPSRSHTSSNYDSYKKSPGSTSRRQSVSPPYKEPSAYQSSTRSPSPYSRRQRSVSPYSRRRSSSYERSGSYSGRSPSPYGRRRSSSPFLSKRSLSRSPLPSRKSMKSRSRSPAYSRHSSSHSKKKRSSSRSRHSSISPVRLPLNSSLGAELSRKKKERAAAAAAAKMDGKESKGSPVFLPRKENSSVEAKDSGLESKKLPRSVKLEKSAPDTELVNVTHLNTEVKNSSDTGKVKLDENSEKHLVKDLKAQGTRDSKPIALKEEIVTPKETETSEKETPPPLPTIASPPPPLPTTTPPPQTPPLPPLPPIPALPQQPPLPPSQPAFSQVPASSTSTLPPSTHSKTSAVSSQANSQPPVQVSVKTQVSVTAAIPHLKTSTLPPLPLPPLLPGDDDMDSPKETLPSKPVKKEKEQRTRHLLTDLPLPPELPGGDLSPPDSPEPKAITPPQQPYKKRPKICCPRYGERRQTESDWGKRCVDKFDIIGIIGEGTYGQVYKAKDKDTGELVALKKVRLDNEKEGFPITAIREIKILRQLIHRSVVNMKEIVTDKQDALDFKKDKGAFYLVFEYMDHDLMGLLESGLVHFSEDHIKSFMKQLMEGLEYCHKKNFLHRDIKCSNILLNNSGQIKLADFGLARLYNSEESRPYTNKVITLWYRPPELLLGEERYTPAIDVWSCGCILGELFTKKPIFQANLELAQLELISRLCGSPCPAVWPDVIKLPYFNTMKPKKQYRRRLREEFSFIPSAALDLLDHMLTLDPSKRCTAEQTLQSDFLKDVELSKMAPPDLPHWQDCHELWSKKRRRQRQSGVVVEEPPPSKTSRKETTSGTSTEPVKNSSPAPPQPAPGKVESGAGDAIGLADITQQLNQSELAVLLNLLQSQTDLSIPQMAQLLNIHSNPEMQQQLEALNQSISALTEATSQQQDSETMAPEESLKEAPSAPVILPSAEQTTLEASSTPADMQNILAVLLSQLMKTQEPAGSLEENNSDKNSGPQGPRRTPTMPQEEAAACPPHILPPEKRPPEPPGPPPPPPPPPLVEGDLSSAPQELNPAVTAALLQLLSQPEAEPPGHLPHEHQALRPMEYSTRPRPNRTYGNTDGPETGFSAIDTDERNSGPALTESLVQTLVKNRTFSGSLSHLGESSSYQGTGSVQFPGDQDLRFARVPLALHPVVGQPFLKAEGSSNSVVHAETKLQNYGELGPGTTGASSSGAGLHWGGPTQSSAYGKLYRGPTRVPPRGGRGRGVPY
T2 sequence (O75909 whole entry partner): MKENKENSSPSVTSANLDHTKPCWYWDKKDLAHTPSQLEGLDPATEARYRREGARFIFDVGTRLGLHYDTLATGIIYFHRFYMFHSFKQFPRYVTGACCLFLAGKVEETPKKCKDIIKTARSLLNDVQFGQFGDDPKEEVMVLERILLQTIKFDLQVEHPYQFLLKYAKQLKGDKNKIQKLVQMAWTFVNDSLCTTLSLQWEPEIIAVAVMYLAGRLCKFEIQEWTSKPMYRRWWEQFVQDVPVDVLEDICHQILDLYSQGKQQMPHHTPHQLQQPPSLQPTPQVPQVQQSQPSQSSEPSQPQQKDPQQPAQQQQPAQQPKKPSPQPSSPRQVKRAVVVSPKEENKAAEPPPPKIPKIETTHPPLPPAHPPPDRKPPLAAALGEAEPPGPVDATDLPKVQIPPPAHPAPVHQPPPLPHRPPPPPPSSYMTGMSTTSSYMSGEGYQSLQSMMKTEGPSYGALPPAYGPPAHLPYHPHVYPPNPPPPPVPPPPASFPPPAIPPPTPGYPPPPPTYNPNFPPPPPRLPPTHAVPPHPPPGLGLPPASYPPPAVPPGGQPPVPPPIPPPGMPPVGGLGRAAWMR
T2 sequence (Q16531 2-1140 limits assumed): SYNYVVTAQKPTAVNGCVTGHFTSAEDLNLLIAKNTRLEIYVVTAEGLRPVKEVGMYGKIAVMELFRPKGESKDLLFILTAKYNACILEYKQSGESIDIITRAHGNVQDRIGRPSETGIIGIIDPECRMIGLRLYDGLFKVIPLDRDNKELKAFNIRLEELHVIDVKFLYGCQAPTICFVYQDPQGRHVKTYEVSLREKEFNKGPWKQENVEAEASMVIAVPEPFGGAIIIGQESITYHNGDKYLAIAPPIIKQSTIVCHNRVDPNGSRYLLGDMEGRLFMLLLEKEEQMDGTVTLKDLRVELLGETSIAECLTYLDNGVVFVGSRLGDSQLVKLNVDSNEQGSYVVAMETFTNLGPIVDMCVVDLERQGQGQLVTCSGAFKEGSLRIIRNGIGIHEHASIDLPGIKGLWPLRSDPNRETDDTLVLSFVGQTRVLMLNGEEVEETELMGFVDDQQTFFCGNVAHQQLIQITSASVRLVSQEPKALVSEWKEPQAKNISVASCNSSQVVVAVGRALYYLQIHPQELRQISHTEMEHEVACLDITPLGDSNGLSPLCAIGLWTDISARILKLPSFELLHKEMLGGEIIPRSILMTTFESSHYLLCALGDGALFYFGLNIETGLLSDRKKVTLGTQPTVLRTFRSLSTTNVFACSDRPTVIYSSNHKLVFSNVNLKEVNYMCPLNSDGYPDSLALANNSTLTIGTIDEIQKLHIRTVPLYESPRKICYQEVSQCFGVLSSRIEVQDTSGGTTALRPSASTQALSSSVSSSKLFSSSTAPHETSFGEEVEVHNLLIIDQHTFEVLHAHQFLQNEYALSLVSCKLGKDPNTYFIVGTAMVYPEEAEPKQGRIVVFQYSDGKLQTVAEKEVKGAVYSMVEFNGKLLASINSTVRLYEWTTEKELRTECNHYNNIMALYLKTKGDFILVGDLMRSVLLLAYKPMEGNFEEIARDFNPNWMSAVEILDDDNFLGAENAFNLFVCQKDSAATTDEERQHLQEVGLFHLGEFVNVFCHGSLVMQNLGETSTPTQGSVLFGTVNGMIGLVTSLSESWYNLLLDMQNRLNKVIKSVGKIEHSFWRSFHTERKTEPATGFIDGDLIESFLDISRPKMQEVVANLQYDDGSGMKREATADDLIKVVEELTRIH
Procedure: (§1) MDA-MB-231 cells were treated with DMSO or a cyclin K degrader compound at 1 µM for 5 h. Cells were collected by centrifugation and washed with phosphate-buffered saline before snap freezing in liquid nitrogen. Cells were lysed by addition of lysis buffer (8 M urea, 50 mM NaCl, 50 mM 4-(2-hydroxyethyl)-1-piperazineethanesulfonic acid (EPPS) pH 8.5, and protease and phosphatase inhibitors) and homogenization by bead beating (BioSpec) for three repeats of 30 s at 2,400 rpm. Bradford assay was used to determine the final protein concentration in the clarified cell lysate. Then 50 µg of protein for each sample was reduced, alkylated and precipitated using methanol/chloroform as previously described, and the resulting washed precipitated protein was allowed to air dry. Precipitated protein was resuspended in 4 M urea, 50 mM HEPES pH 7.4, followed by dilution to 1 M urea with the addition of 200 mM EPPS, pH 8. Proteins were first digested with LysC (1:50; enzyme:protein) for 12 h at room temperature. The LysC digestion was diluted to 0.5 M urea with 200 mM EPPS pH 8 followed by digestion with trypsin (1:50; enzyme:protein) for 6 h at 37 °C. Sample digests were acidified with formic acid to a pH of 2–3 before desalting using C18 solid phase extraction plates (SOLA, Thermo Fisher Scientific). Desalted peptides were dried in a vacuum-centrifuged and reconstituted in 0.1% formic acid for liquid chromatography–mass spectrometry analysis.
(§2) Data were collected using a TimsTOF Pro2 (Bruker Daltonics) coupled to a nanoElute LC pump (Bruker Daltonics) via a CaptiveSpray nano-electrospray source. Peptides were separated on a reversed-phase C18 column (25 cm × 75 µm inner diameter, […], IonOpticks) containing an integrated captive spray emitter. Peptides were separated using a 50 min gradient of 2–30% buffer B (acetonitrile in 0.1% formic acid) with a flow rate of 250 nl min^−1 and column temperature maintained at 50 °C.
(§3) Data-dependent acquisition (DDA) was performed in Parallel Accumulation-Serial Fragmentation (PASEF) mode to determine effective ion mobility windows for downstream diaPASEF data collection. The ddaPASEF parameters included: 100% duty cycle using accumulation and ramp times of 50 ms each, one Trapped Ion Mobility Spectrometry(TIMS)-MS scan and ten PASEF ramps per acquisition cycle. The TIMS-MS survey scan was acquired between 100 m/z and 1,700 m/z and 1/K0 of 0.7–1.3 V s cm^−2. Precursors with one to five charges were selected, and those that reached an intensity threshold of 20,000 arbitrary units were actively excluded for 0.4 min. The quadrupole isolation width was set to 2 m/z for m/z < 700 and 3 m/z for m/z > 800, with the m/z between 700 m/z and 800 m/z being interpolated linearly. […] To perform diaPASEF, the precursor distribution in the DDA m/z-ion mobility plane was used to design an acquisition scheme for data-independent acquisition (DIA) data collection that included two windows in each 50 ms diaPASEF scan. Data were acquired using 16 of these 25 Da precursor double window scans (creating 32 windows) that covered the diagonal scan line for doubly and triply charged precursors, with singly charged precursors able to be excluded by their position in the m/z-ion mobility plane. These precursor isolation windows were defined between 400 m/z and 1,200 m/z and 1/K0 of 0.7–1.3 V s cm^−2.
(§4) DirectDIA mode includes first extracting the DIA data into a collection of MS2 spectra which are searched using Spectronaut’s Pulsar search engine. The search results are then used to generate a spectral library which is then employed for the targeted analysis of the DIA data. MS/MS spectra were searched against a Swissprot human database (January 2021). Database search criteria largely followed the default settings for directDIA including: tryptic with two missed cleavages, fixed carbomidomethylation of cysteine, and variable oxidation of methionine and acetylation of protein N-termini and precursor Q-value (FDR) cut-off of 0.01. […]

[3] = tested on: cyclin K–eGFP degradation reporter; experiment: Cyclin K reporter stability analysis (dual-color cyclin K–eGFP reporter); type: cell-based, human; details: source data sheet correlations; read-out: DC50
Procedure, shortened: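 A 5 h treatment of HEK293T–Cas9 cells expressing the degradation reporter preceded flow cytometry; eGFP over mCherry, normalized to DMSO.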

[4] = tested on: HEK293T cells; experiment: Drug sensitivity assay (CellTiter-Glo viability) with or without MLN4924 pretreatment; type: cell-based, human; details: Supplementary Table 2
Procedure, shortened: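 HEK293T–Cas9, 0.15 × 10^6 ml^−1; pretreat DMSO vs 100 nM MLN4924; drugs dispensed after 2 h; 3 d exposure; CellTiter-Glo; viability vs DMSO control.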

[5] = biological target: T3, CDK13 (Homo sapiens, UniProt Q14004+Q16531); experiment: Label-free quantitative mass spectrometry in MDA-MB-231 cells, CDK13; type: cell-based
T3 construct: endogenous in cells; host or cells: MDA-MB-231
Procedure: as §1, §2, §3, §4

[6] = tested on: cyclin K; experiment: Label-free quantitative mass spectrometry in MDA-MB-231 cells, cyclin K; type: cell-based, human
Procedure: as §1, §2, §3, §4

[7] = label-free quantitative MS, replicate values
[8] = normalised to DMSO = 1, replicate values

- TR-FRET signal at compound concentration ([1]; compound concentration 0.468 nM): 0.2538 and 0.2487 and 0.2092
- TR-FRET signal at compound concentration ([1]; compound concentration 2.16 nM): 0.3096 and 0.3093 and 0.2708
- TR-FRET signal at compound concentration ([1]; compound concentration 3.6 nM): 0.4411 and 0.4525 and 0.4039
- TR-FRET signal at compound concentration ([1]; compound concentration 7.92001 nM): 0.6962 and 0.7001 and 0.6519
- TR-FRET signal at compound concentration ([1]; compound concentration 15.84 nM): 1.209 and 1.183 and 1.188
- TR-FRET signal at compound concentration ([1]; compound concentration 30.96 nM): 1.971 and 1.9872 and 1.9274
- TR-FRET signal at compound concentration ([1]; compound concentration 62.6401 nM): 3.092 and 3.095 and 2.939
- TR-FRET signal at compound concentration ([1]; compound concentration 125.28 nM): 3.635 and 3.6 and 3.694
- TR-FRET signal at compound concentration ([1]; compound concentration 244.8 nM): 4.013 and 4.0411
- TR-FRET signal at compound concentration ([1]; compound concentration 993.601 nM): 3.909 and 4.092 and 4.233
- TR-FRET signal at compound concentration ([1]; compound concentration 2001.6 nM): 4.11 and 4.134 and 4.272
- EC50 ([1]; in vitro complex formation, 50 nM CDK12–cyclin K, 100 nM DDB1, text and figures, read-out: TR-FRET EC50): 35 ± 1 nM
- EC50 ([1]; sheet MOESM7, read-out: log TR-FRET EC50 (converted)): 34.8 nM
- EC50 ([1]; source data sheet correlations, read-out: TR-FRET EC50): 34.8 nM
- CDK12 peptide count [2, 7]: 530.324 and 557.769
- CDK12 peptide count (DMSO-normalised) [2, 8]: 0.5892 and 0.5761
- DC50 [3]: 78 nM
- CDK13 peptide count [5, 7]: 256.293 and 280.454
- CDK13 peptide count (DMSO-normalised) [5, 8]: 0.3813 and 0.431
SMILES: CC[C@H](CO)Nc1nc(NCCCc2cccc(C)c2)c2ncn(C(C)C)c2n1 [DS30]
- EC50 ([4]; Homo sapiens, HEK-293T, HEK293T viability, 72 h, compound alone, read-out: Cellular assays EC50): 451 nM
- Toxicity rescue ([4]; MLN4924-mediated cytotoxicity rescue, 10 µM used where n.d.): 496%
- cyclin K abundance (label-free MS) ([6]; individual replicates, sheet EDF7): 199.985 and 224.267
- cyclin K abundance (label-free MS) [6, 7]: 199.985 and 224.267
- CCNK peptide count (DMSO-normalised) [6, 8]: 0.1093 and 0.1247
- average CCNK peptide count ([6]; sheet EDF7): 212.126
